# In patent EP2966448B1, “METHOD FOR THE PREDICTION OR PROGNOSIS OF THE RESPONSE OF A HUMAN SUBJECT SUFFERING FROM CANCER TO TREATMENT WITH AN ANTAGONIST OF THE NK1 RECEPTOR” (priority 2013, dated 2014):
# Read-outs that look alike come from different tables or passages of the source.
# Legend:
# Endometrium carcinoma = assay: cells; conditions: Homo sapiens, 1 micromolar
# Procedure: (§1) Cell cultures. To obtain tumor cells from human primary tumors we used the method described in De Bari et al. (De Bari et al. 2001). Briefly, small pieces of the tumors were digested into a hyaluronidase solution (Sigma-Aldrich, USA) at a concentration of 1 mg/ml during 15 minutes at 37°C, and then they were treated with 6 mg/ml of collagenase type IV (Invitrogen) during 2 hours at 37°C. Consecutively, cells were washed, and resuspended in the DMEM culture medium with high concentration of glucose (Dulbecco's Modified Eagle's Medium, Invitrogen) supplemented with 1% of antibiotics-antimycotics (Invitrogen) and with 1% of sodium pyruvate (Invitrogen), and the cells were seeded in culture slides at a concentration of 10.000 cells per square centimeter. When cells reached confluence, the adherent cells were separated using sterile trypsin at 0,5% (Invitrogen) and they were used among passages 3 and 9. For the assays shown next, tumor cells were seeded on slides at a concentration of 25.000 cells per well. A total of 6 wells containing the tumor cells were used as survival control. […] All the cultures were kept during 48 hours and later on recollected for their analysis.
# (§2) Immunohistochemistry techniques. The presence of NK1 receptors was also analyzed using immunohistochemistry techniques. Briefly, a sample of each of the cultures of the cell lines used in the present invention, was centrifuged (5 minutes at 1.500 rpm) and the pellet obtained was dehydrated using increasing concentrations of ethanol and, finally, xylol. Then, said dehydrated samples were embedded in paraffin, creating a block of cells. Such paraffin blocks were cut with a microtome at 5 microns thickness, and were placed on microscope slides adequate to perform immunohistochemistry techniques. Consecutively, they were de-paraffinized by immersing them in xylol, to be finally hydrated using a solution containing decreasing concentrations of ethanol, and finally submerged them into water. […] After this, the samples were left to cool down at room temperature for 10 minutes. The endogenous peroxidase activity was blocked with 3% peroxide of hydrogen for 30 minutes at room temperature. After washing the samples with 0.05 M of Tris buffer, they were incubated with 10% non-immune pork serum at for 30 minutes at room temperature. To analyze the expression of NK1 receptors, the cellular samples were incubated in the presence of anti-NK1 antibodies (S8305, Sigma-Aldrich) diluted 1:1000, overnight at 4°C. Afterwards, the samples were washed in Tris buffer 0.05 M at room temperature. The next step was the addition of Envision System-HRP (Dako) reagents for 30 minutes at room temperature. Then, the samples were washed again in Tris buffer 0.05 M and the immunoreactivity was visualized through light microscopy with a chromogenic solution containing 3,3'-Diaminobenzidine (DAB+; Dako, USA). To differentiate the cell nuclei, they were slightly stained with hematoxylin. As negative control, it was used samples not incubated with the primary antibody anti-NK1, which was replaced by non-immune serum. All the samples were evaluated.
# (§3) To value the immunostaining in each of the cases six cuts were performed to be analyzed by the immunohistochemistry technique. In each of the six cuts, it was counted cells in 20 fields (magnification 400x) using an Olympus microscope (model CX31). In each field it was counted the total number of cells and the number of cells presenting immunostaining, calculating afterwards the percentage of cells which presented immunostaining.
# Neuroblastoma = assay: Inhibition of primary tumor cell cultures (48 hours) vs NK1 receptor immunostaining (Example 1); type: cell-based; conditions: Homo sapiens, 1 micromolar, read-out: Percentage of inhibition of cell cultures
# Procedure: as §1, §2, §3
# [1] = tested on: Gastric carcinoma (Adenocarcinoma); assay: Inhibition of primary tumor cell cultures vs Kras mutation (Example 2); type: cell-based, human; conditions: Gastric carcinoma (Adenocarcinoma), 100 micromolar
# Procedure: (§4) Cell cultures. […] Briefly, small pieces of the tumors were digested into a hyaluronidase solution (Sigma-Aldrich, USA) at a concentration of 1 mg/ml during 15 minutes at 37°C, and then they were treated with 6 mg/ml of collagenase type IV (Invitrogen) during 2 hours at 37°C. Consecutively, cells were washed, and resuspended in the DMEM culture medium with high concentration of glucose (Dulbecco's Modified Eagle's Medium, Invitrogen) supplemented with 1% of antibiotics-antimycotics (Invitrogen) and with 1% of sodium pyruvate (Invitrogen), and the cells were seeded in culture slides at a concentration of 10.000 cells per square centimeter. When cells reached confluence, the adherent cells were separated using sterile trypsin at 0,5% (Invitrogen) and they were used among passages 3 and 9. For the assays shown next, tumor cells were seeded on slides at a concentration of 25.000 cells per well. A total of 6 wells containing the tumor cells were used as survival control. […] All the cultures were kept during 48 hours and later on recollected for their analysis.
# (§5) In each case the presence or not of mutations in K-ras gene was determined.
# (§6) To determine the existence of mutations in the K-ras gene DNA from cancer tumor cells was extracted from samples obtained from the different cancer tumor cells, using DNA extraction kits from Takara (Madison, WI, US) or Ambion (Huntingdon, Cambridgeshire, United Kingdom), following the manufacturer's instructions, and as it has been previously published (Di Fiore F, et al. 2007). Consecutively it was analyzed by sequencing the exon 2 of the KRAS gene, , by means of PCR amplification from previously extracted cancer tumor DNA, using the following sense primer (SEQ ID NO. 15): 5'-[sequence]-3' and anti-sense primer (SEQ ID NO. 16): 5'-[sequence]-3'. After the purification using the Qiagen extraction kit, the PCR products were sequenced using the Big Dye Terminator Kit V3.1 (Applied Biosystems, Foster City, CA, U.S.) and an ABI Prism 377 or 3100 DNA sequencer (Applied Biosystems). The presence of a heterozygous mutation in the KRAS gene in cancer tumor cells of the cultures was defined as the appearance of a mutant peak of a height of at least a third of the wild type. All the sequence analysis were executed at least twice in two independent PCR.
# (§7) The antibody against NK1 receptor (Table 16) was used at 1/50 concentration. The percentages of inhibition are expressed in percentage of variation in relation to control ± standard deviation.
# Prostate carcinoma = assay: cells; conditions: Homo sapiens, 1 micromolar
# Procedure: as §1, §2, §3
# Renal cell carcinoma = assay: Inhibition of primary tumor cell cultures (48 hours) vs NK1 receptor immunostaining (Example 1); type: cell-based; conditions: Homo sapiens, 1 micromolar, read-out: Percentage of inhibition of cell cultures
# Procedure: as §1, §2, §3
# [2] = tested on: human primary tumor cells; assay: Inhibition of primary tumor cell cultures vs amplification of the gene encoding the NK1 receptor (Example 6; tumor type per table line); type: cell-based; conditions: for Percentage of inhibition of cell cultures: 100 micromolar
# Procedure: as §4
# The presence or absence of the amplification of the gene encoding for the NK1 receptor was determined, and then the cells were cultured in the presence of several antagonists of the NK1 receptor.
# For each case, the presence or absence of amplification of the gene encoding for the NK1 receptor was determined.
# In order to determine the presence of the amplification (increase in the number of copies) of the gene encoding the NK1 receptor (TAC1R), it was used the comparative genomic hybridization technique (CGH Array). Firstly genomic DNA was extracted from each case. Later, it was performed the marking and hybridization of the DNA of each sample together with DNA of a commercial reference without genomic alterations (from masculine or feminine sex, depending on the gender of the patient from whom the samples were obtained). The Array is Sureprint G3 Human CGH Microarray from the company Agilent was used, with an average separation between probes of 5.3Kb and 4.6Kb for the genes RefSeq. The reading of the microarray was done with the DNA Microarray Scanner G2565CA from Agilent, at a resolution of 3 µm. The analysis of the results was performed with the software Cytogenomics v 2.0.6.0 from Agilent with ADM-2: 6.0; Centralization: ON (Threshold: 6.0, Bin size: 10); Fuzzy zero: ON; Aberration filters: ON (minProbes=5 and minAvgAbsLopRatio= 0,5); Feature Level Filters : ON. The genomic coordinates are coincident with the NCBI36genome (hg18). Cases were distributed in two groups: Group I for those cases without the amplification of the gene encoding the NK1 receptor (locus 2p13.1-p12), and Group II for those cases with amplification of the gene encoding the NK1receptor (locus 2p13.1-p12).
# The antibody against NK1 receptor (Table 36) was used at 1/50 concentration. The percentages of inhibition are expressed in percentages of variation in relation to control ± standard deviation.
# [3] = tested on: Lung carcinoma (small cell lung carcinoma); assay: Inhibition of primary tumor cell cultures vs Kras mutation (Example 2); type: cell-based, human; conditions: Lung carcinoma (small cell lung carcinoma), 100 micromolar
# Procedure: To obtain tumor cells from human primary tumors we used the method described in De Bari et al. (De Bari et al. 2001). Briefly, small pieces of the tumors were digested into a hyaluronidase solution (Sigma-Aldrich, USA) at a concentration of 1 mg/ml during 15 minutes at 37°C, and then they were treated with 6 mg/ml of collagenase type IV (Invitrogen) during 2 hours at 37°C. Consecutively, cells were washed, and resuspended in the DMEM culture medium with high concentration of glucose (Dulbecco's Modified Eagle's Medium, Invitrogen) supplemented with 1% of antibiotics-antimycotics (Invitrogen) and with 1% of sodium pyruvate (Invitrogen), and the cells were seeded in culture slides at a concentration of 10.000 cells per square centimeter. When cells reached confluence, the adherent cells were separated using sterile trypsin at 0,5% (Invitrogen) and they were used among passages 3 and 9. For the assays shown next, tumor cells were seeded on slides at a concentration of 25.000 cells per well. A total of 6 wells containing the tumor cells were used as survival control. […] All the cultures were kept during 48 hours and later on recollected for their analysis.
# as §5, §6, §7
# Myeloma = assay: Inhibition of primary tumor cell cultures (48 hours) vs NK1 receptor immunostaining (Example 1); type: cell-based; conditions: Homo sapiens, 1 micromolar, read-out: Percentage of inhibition of cell cultures
# Procedure: as §1, §2, §3
# Breast carcinoma = assay: as above; type: cell-based; conditions: Homo sapiens, 1 micromolar, read-out: Percentage of inhibition of cell cultures
# Procedure: as §1, §2, §3
# [4] = read-out: Percentage of inhibition of cell cultures, NK1 receptor immunostaining Intensity grade 1
# [5] = read-out: Percentage of inhibition of cell cultures, NK1 receptor immunostaining Intensity grade 2
# [6] = read-out: Percentage of inhibition of cell cultures, NK1 receptor immunostaining Intensity grade 3
# [7] = NK1 receptor immunostaining Group 1 (less than 20% of the cells)
# [8] = NK1 receptor immunostaining Group 2 (20-80% of the cells)
# [9] = NK1 receptor immunostaining Group 3 (more than 80% of the cells)
# [10] = NK1 receptor immunostaining Intensity grade 1
# [11] = NK1 receptor immunostaining Intensity grade 2
# [12] = NK1 receptor immunostaining Intensity grade 3
# [13] = Cases with Kras non-mutated (wild type)
structure (smiles),measurement,setting,value
Cc1cc(F)ccc1[C@H]1CNCCN1C(=O)N(C)[C@H](C)c1cc(C(F)(F)F)cc(C(F)(F)F)c1 [Vestipitant],inhibition at 1 µM,Endometrium carcinoma; [4],18 ± 2%
same,inhibition at 1 µM,Endometrium carcinoma; [5],47 ± 4%
same,inhibition at 1 µM,Endometrium carcinoma; [6],93 ± 5%
same,inhibition at 1 µM,Neuroblastoma; [7],17 ± 2%
same,inhibition at 1 µM,Neuroblastoma; [8],46 ± 3%
same,inhibition at 1 µM,Neuroblastoma; [9],93 ± 3%
same,inhibition at 1 µM,Neuroblastoma; [10],16 ± 1%
same,inhibition at 1 µM,Neuroblastoma; [11],49 ± 5%
same,inhibition at 1 µM,Neuroblastoma; [12],93 ± 4%
same,Percentage of inhibition of cell cultures,[1]; Cases with Kras mutated,24±4 percentage
same,Percentage of inhibition of cell cultures,[1]; [13],96±4 percentage
same,inhibition at 1 µM,"Prostate carcinoma; read-out: Percentage of inhibition of cell cultures, NK1 receptor immunostaining Group 1 (less than 20% of the cells)",17 ± 4%
same,inhibition at 1 µM,"Prostate carcinoma; read-out: Percentage of inhibition of cell cultures, NK1 receptor immunostaining Group 2 (20-80% of the cells)",46 ± 3%
same,inhibition at 1 µM,"Prostate carcinoma; read-out: Percentage of inhibition of cell cultures, NK1 receptor immunostaining Group 3 (more than 80% of the cells)",92 ± 5%
same,inhibition at 1 µM,Prostate carcinoma; [4],18 ± 4%
same,inhibition at 1 µM,Prostate carcinoma; [5],47 ± 4%
same,inhibition at 1 µM,Prostate carcinoma; [6],92 ± 4%
same,inhibition at 1 µM,Renal cell carcinoma; [7],10 ± 4%
same,inhibition at 1 µM,Renal cell carcinoma; [8],45 ± 3%
same,inhibition at 1 µM,Renal cell carcinoma; [9],93 ± 6%
same,inhibition at 1 µM,Renal cell carcinoma; [10],21 ± 3%
same,inhibition at 1 µM,Renal cell carcinoma; [11],46 ± 4%
same,inhibition at 1 µM,Renal cell carcinoma; [12],93 ± 4%
same,Percentage of inhibition of cell cultures,"[2]; Breast carcinoma (ductal adenocarcinoma), Cases with amplification of the gene that encodes for the NK1 receptor",94±6 percentage
same,Percentage of inhibition of cell cultures,"[2]; Breast carcinoma (ductal adenocarcinoma), Cases without amplification of the gene that encodes for the NK1 receptor",24±3 percentage
same,Percentage of inhibition of cell cultures,"[2]; Burkitt Lymphoma, Cases with amplification of the gene that encodes for the NK1 receptor",97±5 percentage
same,Percentage of inhibition of cell cultures,"[2]; Burkitt Lymphoma, Cases without amplification of the gene that encodes for the NK1 receptor",23±5 percentage
same,Percentage of inhibition of cell cultures,"[2]; Carcinoma of the uterine cervix (Squamous cell carcinoma), Cases with amplification of the gene that encodes for the NK1 receptor",94±6 percentage
same,Percentage of inhibition of cell cultures,"[2]; Carcinoma of the uterine cervix (Squamous cell carcinoma), Cases without amplification of the gene that encodes for the NK1 receptor",26±6 percentage
same,Percentage of inhibition of cell cultures,"[2]; Colon carcinoma (Adenocarcinoma), Cases with amplification of the gene that encodes for the NK1 receptor",93±3 percentage
same,Percentage of inhibition of cell cultures,"[2]; Colon carcinoma (Adenocarcinoma), Cases without amplification of the gene that encodes for the NK1 receptor",24±4 percentage
same,Percentage of inhibition of cell cultures,"[2]; Endometrium carcinoma, Cases with amplification of the gene that encodes for the NK1 receptor",95±5 percentage
same,Percentage of inhibition of cell cultures,"[2]; Endometrium carcinoma, Cases without amplification of the gene that encodes for the NK1 receptor",23±5 percentage
same,Percentage of inhibition of cell cultures,"[2]; Gastric carcinoma (Adenocarcinoma), Cases with amplification of the gene that encodes for the NK1 receptor",94±4 percentage
same,Percentage of inhibition of cell cultures,"[2]; Gastric carcinoma (Adenocarcinoma), Cases without amplification of the gene that encodes for the NK1 receptor",25±5 percentage
same,Percentage of inhibition of cell cultures,"[2]; Glioma (astrocytoma), Cases with amplification of the gene that encodes for the NK1 receptor",94±7 percentage
same,Percentage of inhibition of cell cultures,"[2]; Glioma (astrocytoma), Cases without amplification of the gene that encodes for the NK1 receptor",26±5 percentage
same,Percentage of inhibition of cell cultures,"[2]; Lung carcinoma (non small cell lung carcinoma), Cases with amplification of the gene that encodes for the NK1 receptor",93±5 percentage
same,Percentage of inhibition of cell cultures,"[2]; Lung carcinoma (non small cell lung carcinoma), Cases without amplification of the gene that encodes for the NK1 receptor",24±4 percentage
same,Percentage of inhibition of cell cultures,"[2]; Lung carcinoma (small cell lung carcinoma), Cases with amplification of the gene that encodes for the NK1 receptor",94±4 percentage
same,Percentage of inhibition of cell cultures,"[2]; Lung carcinoma (small cell lung carcinoma), Cases without amplification of the gene that encodes for the NK1 receptor",25±3 percentage
same,Percentage of inhibition of cell cultures,"[2]; Melanoma (Nodular Melanoma), Cases with amplification of the gene that encodes for the NK1 receptor",96±5 percentage
same,Percentage of inhibition of cell cultures,"[2]; Melanoma (Nodular Melanoma), Cases without amplification of the gene that encodes for the NK1 receptor",24±6 percentage
same,Percentage of inhibition of cell cultures,"[2]; Non Hodgkin Lymphoma B (diffuse B cell lymphoma), Cases with amplification of the gene that encodes for the NK1 receptor",94±6 percentage
same,Percentage of inhibition of cell cultures,"[2]; Non Hodgkin Lymphoma B (diffuse B cell lymphoma), Cases without amplification of the gene that encodes for the NK1 receptor",27±5 percentage
same,Percentage of inhibition of cell cultures,"[2]; Non Hodgkin Lymphoma T (diffuse T cell lymphoma), Cases with amplification of the gene that encodes for the NK1 receptor",95±4 percentage
same,Percentage of inhibition of cell cultures,"[2]; Non Hodgkin Lymphoma T (diffuse T cell lymphoma), Cases without amplification of the gene that encodes for the NK1 receptor",29±3 percentage
same,Percentage of inhibition of cell cultures,"[2]; Ovarian carcinoma(Adenocarcinoma), Cases with amplification of the gene that encodes for the NK1 receptor",96±5 percentage
same,Percentage of inhibition of cell cultures,"[2]; Ovarian carcinoma(Adenocarcinoma), Cases without amplification of the gene that encodes for the NK1 receptor",25±4 percentage
same,Percentage of inhibition of cell cultures,"[2]; Pancreatic carcinoma (Adenocarcinoma), Cases with amplification of the gene that encodes for the NK1 receptor",93±4 percentage
same,Percentage of inhibition of cell cultures,"[2]; Pancreatic carcinoma (Adenocarcinoma), Cases without amplification of the gene that encodes for the NK1 receptor",25±3 percentage
same,Percentage of inhibition of cell cultures,"[2]; Prostate carcinoma, Cases with amplification of the gene that encodes for the NK1 receptor",96±6 percentage
same,Percentage of inhibition of cell cultures,"[2]; Prostate carcinoma, Cases without amplification of the gene that encodes for the NK1 receptor",25±6 percentage
same,Percentage of inhibition of cell cultures,"[2]; Renal cell carcinoma (clear cell renal cell carcinoma), Cases with amplification of the gene that encodes for the NK1 receptor",94±5 percentage
same,Percentage of inhibition of cell cultures,"[2]; Renal cell carcinoma (clear cell renal cell carcinoma), Cases without amplification of the gene that encodes for the NK1 receptor",27±4 percentage
same,Percentage of inhibition of cell cultures,"[2]; Thyroid carcinoma (follicular carcinoma), Cases with amplification of the gene that encodes for the NK1 receptor",94±6 percentage
same,Percentage of inhibition of cell cultures,"[2]; Thyroid carcinoma (follicular carcinoma), Cases without amplification of the gene that encodes for the NK1 receptor",25±5 percentage
same,Percentage of inhibition of cell cultures,"[2]; Thyroid carcinoma (papillary carcinoma), Cases with amplification of the gene that encodes for the NK1 receptor",97±4 percentage
same,Percentage of inhibition of cell cultures,"[2]; Thyroid carcinoma (papillary carcinoma), Cases without amplification of the gene that encodes for the NK1 receptor",26±3 percentage
same,Percentage of inhibition of cell cultures,"[2]; Undifferentiated Pleomorphic Sarcoma (malignant fibrous histiocytoma grade 3), Cases with amplification of the gene that encodes for the NK1 receptor",95±7 percentage
same,Percentage of inhibition of cell cultures,"[2]; Undifferentiated Pleomorphic Sarcoma (malignant fibrous histiocytoma grade 3), Cases without amplification of the gene that encodes for the NK1 receptor",27±4 percentage
same,Percentage of inhibition of cell cultures,"[2]; Urinary bladder carcinoma (transitional cell carcinoma), Cases with amplification of the gene that encodes for the NK1 receptor",95±5 percentage
same,Percentage of inhibition of cell cultures,"[2]; Urinary bladder carcinoma (transitional cell carcinoma), Cases without amplification of the gene that encodes for the NK1 receptor",24±5 percentage
same,inhibition of cell proliferation,"[2]; cancer cell cultures which show amplification in the genomic region encoding the NK1 receptor, compared, non-peptidic antagonists 100 micromolar, antibody 1/50",higher inhibition
same,Percentage of inhibition of cell cultures,[3]; Cases with Kras mutated,23±4 percentage
same,Percentage of inhibition of cell cultures,[3]; [13],95±4 percentage
same,inhibition at 1 µM,Myeloma; [7],15 ± 2%
same,inhibition at 1 µM,Myeloma; [8],45 ± 4%
same,inhibition at 1 µM,Myeloma; [9],93 ± 6%
same,inhibition at 1 µM,Myeloma; [10],17 ± 2%
same,inhibition at 1 µM,Myeloma; [11],47 ± 4%
same,inhibition at 1 µM,Myeloma; [12],93 ± 5%
same,inhibition at 1 µM,Breast carcinoma; [7],12 ± 3%
same,inhibition at 1 µM,Breast carcinoma; [8],46 ± 3%
same,inhibition at 1 µM,Breast carcinoma; [9],93 ± 4%
same,inhibition at 1 µM,Breast carcinoma; [10],19 ± 4%
same,inhibition at 1 µM,Breast carcinoma; [11],45 ± 3%
same,inhibition at 1 µM,Breast carcinoma; [12],93 ± 3%
